For one test, the system named is NOX2. The test is described as follows: NOX2 expression in LPS-stimulated primary glial cultures (western blot). In kind it is cell-based, rat. The conditions noted are these: 30 μM, LPS 1 μg/mL 24 h (LPS alone 65.3%). As to the method: (§1) TNFα is considered one of the most important pro-inflammatory cytokines. […] The production of TNFα induced by LPS was reduced by 33% at 10 μM and by 50% at 30 μM. […] To further confirm the anti-inflammatory potential of compound 5c we measured the expression of thre NOX2 enzyme, since this isoform has been widely described as being specific tomicroglial cells. As depicted in Fig. 6F, LPS (1 μg/mL) stimulation of primary glial cultures during 24 h increased the expression of NOX2 by 65.3% (p < 0.01) compared to basal conditions.
(§2) Figure 6 Nitrites (A), TNFα (B), iNOS (C) and NOX activity (E) blockade (D) and NOX2 production (F) by 5c in primary glial cultures stimulated with LPS (1 μg/mL), HO-1 expression induced by this compound after 24 h. […] NOX activity was measured after 4 h co-treatment with LPS and compound 5c. […]
(§3) After treatment, mixed glial cells were washed with cold PBS and lysed in 100 μl ice-cold lysis buffer (1% Nonident P-40, 10% glycerol, 137 mM NaCl, 20 mM Tris HCl pH 7.5, 1 μg/ml leupeptin, 1 mM phenylmethylsulfonyl fluoride, 20 mM NaF, 1 mM sodium pyrophosphate, and 1 mM Na3VO4). […] Peroxidase-conjugated secondary antibodies (1:10000) were used to detect proteins by enhanced chemiluminescence detected by Advance Western-blotting Detection Kit (GE Healthcare, Barcelona, Spain). […]

In the next test the test system is HO-1. The test is described as follows: HO-1 expression in glial cultures (western blot). Format: cell-based, rat. The settings on record: 30 μM, 24 h. Here is the method:
as §1, §2, §3
For orientation: A western blot detects proteins with antibodies after separation by electrophoresis.

Data on one compound can be found in paper PMC5374710, “Discovery of the first dual GSK3β inhibitor/Nrf2 inducer. A new multitarget therapeutic strategy for Alzheimer’s disease” (Scientific Reports, 2017).

On to `COc1cccc(C2C(C#N)=C(N)Oc3n[nH]c(C)c32)c1` (centres unmarked) [Compound 5c, 6-Amino-4-(3-methoxyphenyl)-3-methyl-2,4-dihydropyrano[2,3-c]pyrazole-5-carbonitrile], for which the “NOX2 expression increase compared to basal conditions in presence of LPS” value with NOX2 was found to be 11.1%. In the test on HO-1, the “HO-1 expression increase in glial cultures” value was 2.3 times.
